# Results as given in patent publication US8980254B2, “Formulation for oral administration of proteins” (Alvine Pharmaceuticals, Inc., priority 2008, dated 2015).
# Entries after “also recorded” stand apart in the source; their conditions may differ.
# Assays:
# Format in all cases: biochemical, barley
# ALV001 [1] = biological target: T1, ALV001 (Hordeum vulgare, UniProt P25250); experiment: Stabilization of ALV001* in early postprandial gastric fluid by reducing agents; parameters: ALV001*(the active form of ALV001) is produced upon proteolytic cleavage of ALV001; made in house
# Description: (§1) Frozen human postprandial gastric fluids were thawed and centrifuged at 21,000 g for 5 minutes to pellet insoluble material, and the supernatant was used for this example. Between 50 and 200 μl of gastric fluid were added to the wells of a 96-well plate and incubated at 37° C. When antioxidants were added, they were added at this step. […] At the specified sampling time, a 1.6 μl sample of gastric fluid was diluted in assay buffer to give a final volume of 280 μl, and the concentration was measured by a chromogenic activity assay using Z-Phe-Arg-p-nitroaniline (pNA) as the substrate. The method is based on the ability of pNA to absorb at 410 nm when released from the substrate. ALV001 is the proenzyme or zymogen for Endoprotease B (Isoform 2) that cleaves the C-terminal side of the arginine in the sequence Phe-Arg. Enzymatic cleavage and subsequent release of pNA may be monitored by the change in absorbance at 410 nm. To determine the reaction rate, the absorbance at 410 nm was measured every 10 seconds for 1 minute. The slope of the regression line divided by the enzyme concentration was the reported enzyme activity.
# Target sequence in this assay (P25250 134-373): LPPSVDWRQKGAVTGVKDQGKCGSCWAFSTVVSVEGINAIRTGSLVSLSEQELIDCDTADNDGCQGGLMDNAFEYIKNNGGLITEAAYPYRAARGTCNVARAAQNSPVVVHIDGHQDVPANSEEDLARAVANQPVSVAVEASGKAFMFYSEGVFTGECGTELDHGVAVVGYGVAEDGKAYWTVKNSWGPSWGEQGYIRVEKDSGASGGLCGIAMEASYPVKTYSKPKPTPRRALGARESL
# ALV001 [2] = biological target: T1, ALV001; experiment: Stabilization of ALV001 in ex vivo postprandial gastric fluid by added antioxidants/reducing/chelating agents (chromogenic activity); parameters: ALV001 is the proenzyme or zymogen for Endoprotease B (Isoform 2); made in house; settings: for stability of ALV001 activity with agent added (FIG. 6): 15 minute postprandial gastric fluid, 37° C., 1.5-45 minutes; for stabilization (preservation of activity) of ALV001 in ex vivo gastric fluid: summary statement, concentration not given
# Description: as §1
# Target sequence in this assay (P25250 29-373 limits assumed): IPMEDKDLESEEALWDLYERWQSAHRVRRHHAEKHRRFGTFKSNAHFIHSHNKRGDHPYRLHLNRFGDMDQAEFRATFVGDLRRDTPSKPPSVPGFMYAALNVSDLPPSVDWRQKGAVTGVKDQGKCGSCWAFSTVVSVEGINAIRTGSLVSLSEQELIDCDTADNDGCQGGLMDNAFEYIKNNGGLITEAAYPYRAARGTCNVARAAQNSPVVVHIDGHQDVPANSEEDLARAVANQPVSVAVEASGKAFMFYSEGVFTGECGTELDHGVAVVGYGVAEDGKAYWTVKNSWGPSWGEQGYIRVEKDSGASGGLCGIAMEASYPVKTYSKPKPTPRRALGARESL
# A control without MTG was also included.
# Shown in FIG. 6, selected reducing agents were added at 5 mM to ex vivo postprandial gastric fluid that was obtained from a healthy volunteer 15 minutes after eating and was incubated at 37° C. The proenzyme ALV001 was added to the gastric fluid. Acetate buffer at pH 4.5 was used as a control, because ALV001 is fully activated under these conditions. Samples were taken to determine ALV001 activity after 1.5, 5, 10, 20, […].
# Samples were taken at 1.5, 5, 10, 20, and 40 minutes.
# ALV001 [3] = biological target: T1, ALV001; experiment: ALV001 activity under simulated postprandial gastric conditions with cysteine; parameters: ALV001 is the proenzyme or zymogen for Endoprotease B (Isoform 2); made in house; settings: gluten-free meal chewed and spit into resting gastric fluid, ALV003 and varying levels of cysteine, simulated gastric acid secretion
# Description: A gluten-free meal was chewed and spit into resting gastric fluid. ALV003 and varying levels of cysteine were added at time 0 and the stability of ALV001 activity was tested by monitoring chromogenic enzyme activity over time. Gastric acid secretion was simulated throughout the experiment.
# A gluten-free meal was chewed and spit into resting gastric fluid. ALV003 and varying levels of cysteine were added at time 0, and the stability of ALV001 activity was measured by monitoring chromogenic enzyme activity over time. Gastric acid secretion was simulated throughout the experiment.
# Target sequence in this assay (P25250 29-373 limits assumed): as above
# ALV001 [4] = biological target: T1, ALV001; experiment: Reversal of loss of enzyme activity: ALV003 pre-incubated in 15 minute postprandial gastric fluid, then MTG added; parameters: ALV001*(the active form of ALV001) is produced upon proteolytic cleavage of ALV001; made in house; settings: 50 mM MTG, approximately 20 minutes after addition to pre-incubated ALV003 in 15 minute postprandial gastric fluid
# Target sequence in this assay (P25250 134-373): as the sequence (P25250 134-373) above
# ALV001 [5] = biological target: T1, ALV001; experiment: Stabilization of ALV001 in ex vivo postprandial gastric fluid by added antioxidants/reducing/chelating agents (chromogenic activity); parameters: ALV001 is the proenzyme or zymogen for Endoprotease B (Isoform 2); made in house; settings: for stabilization of ALV001 (FIG. 11): ALV001 at 0.12 mg/ml, 1.5-40 minutes; for stability of ALV001 in postprandial gastric fluid (FIG. 7): agent at 0.5 mM
# Target sequence in this assay (P25250 29-373 limits assumed): as the sequence (P25250 29-373 limits assumed) above
# ALV001 [6] = biological target: T1, ALV001; experiment: Restoration of ALV001 activity by agents added after 15 minutes incubation in postprandial gastric fluid; parameters: ALV001 is the proenzyme or zymogen for Endoprotease B (Isoform 2); made in house; settings: agent at 5 mM added after 15 minutes at 37° C. in postprandial gastric fluid; 1.5-40 minutes after addition
# Description: ALV001 was added to postprandial gastric fluid and incubated for 15 minutes at 37° C. Reducing agents were added at 5 mM to the gastric fluid and then samples were taken to examine ALV001 activity at 1.5, 5, 10, 20, and 40 minutes after the addition of the reducing agents.
# Target sequence in this assay (P25250 29-373 limits assumed): as above
# ALV001 [7] = biological target: T1, ALV001; experiment: ALV001 activity reconstituted in orange juice with or without sodium metabisulfite; parameters: ALV001 is the proenzyme or zymogen for Endoprotease B (Isoform 2); made in house; settings: 3 mg/ml ALV001 in orange juice, 840 μM sodium metabisulfite
# Description: 3 mg/ml ALV001 was reconstituted in orange juice with or without 840 μM sodium metabisulfite. Chromogenic enzyme activity was measured at the indicated timepoints to determine the relative amount of functional enzyme.
# 3 mg/ml ALV001 was reconstituted in orange juice with or without 840 μM sodium metabisulfite. Chromogenic enzyme activity was measured as described above, at the indicated timepoints, to determine the relative amount of functional enzyme, as shown in FIG. 13.
# Target sequence in this assay (P25250 29-373 limits assumed): as above
Compound,stabilization of ALV001* in early postprandial gastric fluid (ALV001 [1]),stability of ALV001 activity with agent added (FIG. 6) (ALV001 [2]; agent at 5 mM),stabilization (preservation of activity) of ALV001 in ex vivo gastric fluid (ALV001 [2]),further results
O[C@H](CS)[C@H](O)CS (racemic) [dithiothreitol],demonstrated to stabilize ALV001*,–,–,–
O=C(O)CCCC[C@@H]1CCSS1 (racemic) [lipoic acid],demonstrated to stabilize ALV001*,–,–,stability of ALV001 in postprandial gastric fluid (FIG. 7) (ALV001 [2]; agent at 5 mM): demonstrated to improve the stability of ALV001
OCCS [2-mercaptoethanol],demonstrated to stabilize ALV001*,–,–,–
N[C@@H](CS)C(=O)O [L-cysteine],demonstrated to stabilize ALV001*,Substantial improvements in stability,–,stability of ALV001 activity under simulated postprandial gastric conditions (FIG. 14) (ALV001 [3]): stabilizes ALV001 activity
CSCC[C@H](N)C(=O)O [L-methionine],did not stabilize the enzyme,–,did not stabilize,–
"OCC(O)CS (centres unmarked) [MTG, monothioglycerol]",–,–,–,"restoration of enzymatic activity of ALV001* (FIG. 5) (ALV001 [4]): nearly full enzymatic activity was restored; loss of enzymatic activity of ALV001 (FIG. 4) (ALV001 [5]; 50 mM MTG, 15 minute postprandial gastric fluid): no loss; rate of loss of enzymatic activity of ALV001 (FIG. 4) (ALV001 [5]; MTG 0.01 to 50 mM, 15 minute postprandial gastric fluid): decreased with increasing MTG concentrations"
CC(=O)N[C@@H](CS)C(=O)O [N-acetylcysteine],demonstrated to stabilize ALV001*,Substantial improvements in stability,–,restoration of ALV001 enzyme activity (ALV001 [6]): partially restored the enzyme activity
"Cl.O=C(O)CCP(CCC(=O)O)CCC(=O)O [TCEP, tris(2-Carboxyethyl)phosphine hydrochloride]",demonstrated to stabilize ALV001*,–,–,–
O=C1O[C@H]([C@@H](O)CO)C(O)=C1O [ascorbic acid],did not stabilize the enzyme,rapidly inactivated,did not stabilize,–
N[C@@H](CCS)C(=O)O [homocysteine],demonstrated to stabilize ALV001*,–,–,–
O=S([O-])S(=O)(=O)[O-].[Na+].[Na+] [sodium metabisulfite],demonstrated to stabilize ALV001*,–,particularly effective in stabilizing ALV001,"stability of ALV001 activity in orange juice (FIG. 13) (ALV001 [7]): stabilizes ALV001 activity; also recorded: increased stability; stabilization of ALV001 (FIG. 11) (ALV001 [5]; agent at 25 μM, postprandial gastric fluid): considerable stabilization; stability of ALV001 (ALV001 [5]; agent at 50 μM): improved stability of ALV001; stabilization of ALV001 (FIG. 11) (ALV001 [5]; agent at 50 μM, postprandial gastric fluid): best stabilization; stability of ALV001 in postprandial gastric fluid (FIG. 7) (ALV001 [5]): demonstrated to improve the stability of ALV001"
O=S([O-])[O-].[Na+].[Na+] [sodium sulfite],demonstrated to stabilize ALV001*,most effective stabilization,particularly effective in stabilizing ALV001,"restoration of ALV001 enzyme activity (ALV001 [6]): partially restored the enzyme activity; concentration down to which the stabilizing effect persists (ALV001 [5]; postprandial gastric fluid (FIG. 8)): 0.05 mM; stabilization of ALV001 (FIG. 8) (ALV001 [5]; sodium sulfite time course, postprandial gastric fluid): particularly effective"
O=S([O-])([O-])=S.[Na+].[Na+] [sodium thiosulfate],demonstrated to stabilize ALV001*,–,–,stability of ALV001 in postprandial gastric fluid (FIG. 7) (ALV001 [5]): demonstrated to improve the stability of ALV001
